These results are taken from ChEMBL document CHEMBL4834472 (J Med Chem, 2021).

The target in one assay is CDK2/Cyclin A1 (Homo sapiens, UniProt P24941). Type of assay: protein-complex assay.
For assay [1], the target named is Receptor-type tyrosine-protein kinase FLT3 (Homo sapiens, UniProt P36888, ITD).
A further assay has as its system K562. Briefly: cells. The following applies: Homo sapiens, K562, 72 h.
Another assay deals with MV4-11. Briefly: cells. The following applies: Homo sapiens, MV4-11, 72 h.

As usually defined, the IC50 is the point on the concentration scale where inhibition reaches its midpoint.

Sequence of Receptor-type tyrosine-protein kinase FLT3 (P36888 whole entry, looked up, change not shown): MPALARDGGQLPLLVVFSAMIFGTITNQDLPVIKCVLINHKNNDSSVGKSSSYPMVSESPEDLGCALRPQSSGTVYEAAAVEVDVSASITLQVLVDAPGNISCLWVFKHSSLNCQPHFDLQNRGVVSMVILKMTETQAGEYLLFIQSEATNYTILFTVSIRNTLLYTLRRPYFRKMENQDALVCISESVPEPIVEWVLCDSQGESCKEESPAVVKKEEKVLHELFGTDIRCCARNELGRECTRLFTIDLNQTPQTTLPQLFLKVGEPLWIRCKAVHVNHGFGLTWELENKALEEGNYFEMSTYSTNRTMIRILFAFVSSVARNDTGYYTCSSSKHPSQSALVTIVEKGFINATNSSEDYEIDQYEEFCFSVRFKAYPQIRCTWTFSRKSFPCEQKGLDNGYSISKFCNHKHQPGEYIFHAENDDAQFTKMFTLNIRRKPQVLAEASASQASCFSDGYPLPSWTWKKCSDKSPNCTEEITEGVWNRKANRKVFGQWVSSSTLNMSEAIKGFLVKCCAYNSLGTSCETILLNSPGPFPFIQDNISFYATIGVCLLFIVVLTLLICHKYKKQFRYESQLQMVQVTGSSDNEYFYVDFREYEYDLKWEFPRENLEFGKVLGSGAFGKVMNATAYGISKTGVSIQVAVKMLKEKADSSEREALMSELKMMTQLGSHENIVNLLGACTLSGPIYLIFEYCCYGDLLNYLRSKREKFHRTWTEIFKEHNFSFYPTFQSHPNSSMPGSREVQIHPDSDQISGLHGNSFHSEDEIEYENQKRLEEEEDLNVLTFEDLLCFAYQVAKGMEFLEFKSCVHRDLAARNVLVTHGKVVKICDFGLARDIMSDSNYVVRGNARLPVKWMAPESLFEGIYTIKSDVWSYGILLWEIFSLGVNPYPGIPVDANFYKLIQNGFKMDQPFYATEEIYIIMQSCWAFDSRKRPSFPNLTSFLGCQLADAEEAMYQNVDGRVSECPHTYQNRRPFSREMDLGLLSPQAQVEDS
Description for CDK2/Cyclin A1: Inhibition of CDK2/Cyclin A1 (unknown origin) at 1 uM using histone H1 as substrate preincubated for 20 mins followed by 33P-ATP addition and measured after 2 hrs by filter binding method
Description for K562: Antiproliferative activity against human K562 cells assessed as cell death measured after 72 hrs by resazurin dye based assay
Description for MV4-11: Antiproliferative activity against human MV4-11 cells assessed as cell death measured after 72 hrs by resazurin dye based assay

Consider `O=C(O)C1CCc2c(c(-c3c[nH]nc3C(F)(F)F)nc3ccc4[nH]ncc4c23)C1` (stereo unspecified), for which the IC50 on CDK2/Cyclin A1 was 1440 nM; in assay [1] it was 563 nM; in the assay with K562 it was over 100000 nM; in the assay with MV4-11 it was 20000 nM.
As to `Cc1n[nH]c2ccc3nc(-c4c[nH]nc4C(F)(F)F)c4c(c3c12)CCC(C#N)C4` (stereo unspecified), the IC50 against CDK2/Cyclin A1 was 333 nM; in assay [1], 15 nM; in the assay on K562 it was 9940 nM; with MV4-11, 12 nM.
As for `NCC1CCc2c(c(-c3c[nH]nc3C(F)(F)F)nc3c(F)cc4[nH]ncc4c23)C1` (stereo unspecified), the IC50 against CDK2/Cyclin A1 is 58 nM; in assay [1], 19 nM; in the assay on K562 it was 16000 nM; in the assay with MV4-11, 740 nM.
For `FC(F)(F)c1n[nH]cc1-c1nc2ccc3[nH]nnc3c2c2c1CCCC2` the same measures were 1260 nM, 408 nM, 87800 nM and 400 nM.
For `Cc1noc(C)c1-c1nc2ccc3[nH]ncc3c2c2c1CCCC2` the same measures were 555 nM, 2020 nM, 30800 nM and 880 nM.
For `CC(=O)NC1CCc2c(c(-c3c[nH]nc3C(F)(F)F)nc3ccc4[nH]ncc4c23)C1` (stereo unspecified) the same measures were 320 nM, 20 nM, over 100000 nM and 920 nM.
Consider `Fc1cc(F)cc(-c2cc(-c3c[nH]nc3C(F)(F)F)nc3ccc4[nH]ncc4c23)c1`, for which the IC50 against CDK2/Cyclin A1 was 469 nM; in assay [1], over 20000 nM; in the assay with K562, over 100000 nM; in the assay on MV4-11, 52500 nM.
For `FC(F)(F)c1n[nH]cc1-c1nc2ccc3sncc3c2c2c1CCCC2` the same measures were 5160 nM, 8490 nM, 56800 nM and 7350 nM.
Take `CCOC(=O)C1CCc2c(c(-c3c[nH]nc3C(F)(F)F)nc3ccc4[nH]ncc4c23)C1` (stereo unspecified): the IC50 at CDK2/Cyclin A1 stood at 111 nM; in assay [1] it was 118 nM; with K562, 6700 nM; with MV4-11 it was 37 nM.
Regarding `FC(F)(F)c1n[nH]cc1-c1nc2c(N3CCCCC3)cc3[nH]ncc3c2c2c1CCCC2`, the IC50 was 5740 nM against CDK2/Cyclin A1, 1250 nM in assay [1], 20300 nM in the assay on K562 and 2390 nM in the assay with MV4-11.
For `FC(F)(F)c1n[nH]cc1-c1nc2ccc3[nH]nc(Cl)c3c2c2c1CCCCC2` the same measures were 1720 nM, 34 nM, over 100000 nM and 2010 nM.
For `N#CC1CCc2c(c(-c3c[nH]nc3C(F)(F)F)nc3c(F)cc4[nH]ncc4c23)C1` (stereo unspecified) the same measures were 111 nM, 86 nM, 8810 nM and 123 nM.
For `FC(F)(F)c1n[nH]cc1-c1nc2c(C(F)(F)F)cc3[nH]ncc3c2c2c1CCCC2` the same measures were 107 nM, 107 nM, 11100 nM and 180 nM.
Consider `FC(F)(F)c1n[nH]cc1-c1nc2ccc3[nH]nc(Cl)c3c2c2c1CCCC2`, for which the IC50 against CDK2/Cyclin A1 is 2320 nM; in assay [1], 41 nM; with K562, over 100000 nM; in the assay on MV4-11 it was 2490 nM.
For `FC(F)(F)c1n[nH]cc1-c1cc(C2CC2)c2c(ccc3[nH]ncc32)n1` the same measures were 87 nM, 368 nM, 78900 nM and 980 nM.
`Cc1n[nH]cc1-c1nc2c(F)cc3[nH]ncc3c2c2c1CCCC2`: the IC50 came to 17 nM against CDK2/Cyclin A1, 7 nM in assay [1], 3770 nM with K562 and 113 nM with MV4-11.
Turning to `Cn1ncc2c3c4c(c(-c5c[nH]nc5C(F)(F)F)nc3ccc21)CCCC4`, the IC50 on CDK2/Cyclin A1 came out at 3260 nM; in assay [1], 1690 nM; in the assay with K562, 44600 nM; in the assay with MV4-11, 2420 nM.
For `CN1CCN(C2CCc3c(c(-c4c[nH]nc4C(F)(F)F)nc4ccc5[nH]ncc5c34)C2)CC1` (stereo unspecified) the same measures were 266 nM, 141 nM, 19100 nM and 440 nM.
Take `FC(F)(F)c1n[nH]cc1-c1nc2c(Br)cc3[nH]ncc3c2c2c1CCCC2`: the IC50 against CDK2/Cyclin A1 was 10800 nM; in assay [1], over 20000 nM; in the assay on K562, over 100000 nM; in the assay on MV4-11, 36300 nM.
For the compound `O=S1(=O)CCc2c(c(-c3c[nH]nc3C(F)(F)F)nc3ccc4[nH]ncc4c23)C1`, the IC50 against CDK2/Cyclin A1 was 231 nM; in assay [1], 799 nM; in the assay on K562, over 100000 nM; in the assay on MV4-11 it was 765 nM.
On to `CCc1c(C)c(-c2c[nH]nc2C(F)(F)F)nc2ccc3[nH]ncc3c12`, for which the IC50 against CDK2/Cyclin A1 stood at 46 nM; in assay [1] it was 4 nM; in the assay on K562 it was 39100 nM; with MV4-11, 84 nM.
As to `Cc1n[nH]c(C)c1-c1nc2ccc3[nH]ncc3c2c2c1CCCC2`, the IC50 was found to be 107 nM on CDK2/Cyclin A1, 194 nM in assay [1], 8730 nM in the assay with K562 and 514 nM in the assay on MV4-11.
For `FC(F)(F)c1n[nH]cc1-c1nc2ccc3[nH]ncc3c2c2c1CC(N1CCOCC1)CC2` (stereo unspecified) the same measures were 901 nM, 16 nM, 33000 nM and 550 nM.
`FC(F)(F)c1n[nH]cc1-c1cc(-c2ccncc2)c2c(ccc3[nH]ncc32)n1`: the IC50 at CDK2/Cyclin A1 came to 823 nM; in assay [1] it was 2990 nM; in the assay with K562 it was 76800 nM; in the assay on MV4-11 it was 3620 nM.
For `FC(F)(F)c1n[nH]cc1-c1nc2ccc3[nH]ncc3c2c2c1CCCCC2` the same measures were 31 nM, 3 nM, 25100 nM and 76 nM.
For `c1[nH]nnc1-c1nc2ccc3[nH]ncc3c2c2c1CCCC2` the same measures were 180 nM, 132 nM, 9800 nM and 600 nM.
For `CN1CCN(CC#Cc2n[nH]c3ccc4nc(-c5c[nH]nc5C(F)(F)F)c5c(c4c23)CCCC5)CC1` the same measures were 10000 nM, 18 nM, 24800 nM and 459 nM.
As for `NC1CCc2c(c(-c3c[nH]nc3C(F)(F)F)nc3ccc4[nH]ncc4c23)C1` (stereo unspecified), the IC50 against CDK2/Cyclin A1 was 5970 nM; in assay [1] it was 3140 nM; in the assay on K562, 66600 nM; with MV4-11, 3500 nM.
For `FC(F)(F)c1ccc(-c2cc(-c3c[nH]nc3C(F)(F)F)nc3ccc4[nH]ncc4c23)cc1` the same measures were 8240 nM, over 20000 nM, over 100000 nM and over 100000 nM.
